Reference: the Kinase Knowledgebase extract (Sharma et al. 2016)

Experiments:
PIK3CA (human) = PIK3CA (human) (UniProt P42336); test: Assessment of PIK3CA Kinase Activity
PIK3CG (human) = PIK3CG (human) (UniProt P48736); test: Assessment of PIK3CG Kinase Activity
PIK3CD (Human) = PIK3CD (Human) (UniProt O00329); test: Assessment of PIK3CD Kinase Activity
PIK3CB (Human) = PIK3CB (Human) (UniProt P42338); test: Assessment of PIK3CB Kinase Activity
Chain of PIK3CB (Human) (P42338 whole entry, looked up): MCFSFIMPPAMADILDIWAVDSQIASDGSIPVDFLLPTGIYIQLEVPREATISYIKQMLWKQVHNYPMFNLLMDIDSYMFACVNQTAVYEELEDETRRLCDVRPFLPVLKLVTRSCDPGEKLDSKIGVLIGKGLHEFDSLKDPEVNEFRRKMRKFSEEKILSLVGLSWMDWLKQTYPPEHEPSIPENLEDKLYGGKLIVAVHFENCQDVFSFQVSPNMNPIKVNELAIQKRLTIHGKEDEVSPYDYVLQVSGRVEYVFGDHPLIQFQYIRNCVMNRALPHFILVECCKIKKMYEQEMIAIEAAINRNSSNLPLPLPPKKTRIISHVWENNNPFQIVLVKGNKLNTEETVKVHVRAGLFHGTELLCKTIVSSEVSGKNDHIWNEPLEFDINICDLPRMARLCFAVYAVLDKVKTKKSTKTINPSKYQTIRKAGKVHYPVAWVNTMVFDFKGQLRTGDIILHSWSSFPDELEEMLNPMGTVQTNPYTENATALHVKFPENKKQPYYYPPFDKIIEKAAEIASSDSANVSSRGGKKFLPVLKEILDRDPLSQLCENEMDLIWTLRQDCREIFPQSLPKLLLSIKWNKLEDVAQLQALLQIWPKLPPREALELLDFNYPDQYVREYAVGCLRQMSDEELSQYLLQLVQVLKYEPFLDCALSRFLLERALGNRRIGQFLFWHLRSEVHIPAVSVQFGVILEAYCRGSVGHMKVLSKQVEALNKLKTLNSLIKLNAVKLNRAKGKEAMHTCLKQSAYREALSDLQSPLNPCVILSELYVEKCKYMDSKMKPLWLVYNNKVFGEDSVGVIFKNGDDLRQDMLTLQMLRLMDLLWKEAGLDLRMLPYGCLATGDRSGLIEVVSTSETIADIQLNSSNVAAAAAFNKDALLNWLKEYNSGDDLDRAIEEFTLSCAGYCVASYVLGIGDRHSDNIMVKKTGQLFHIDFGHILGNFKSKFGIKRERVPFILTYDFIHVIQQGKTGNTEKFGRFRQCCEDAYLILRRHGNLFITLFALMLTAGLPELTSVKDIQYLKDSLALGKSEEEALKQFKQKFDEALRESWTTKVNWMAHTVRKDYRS

Chain of PIK3CA (human) (P42336 whole entry, looked up): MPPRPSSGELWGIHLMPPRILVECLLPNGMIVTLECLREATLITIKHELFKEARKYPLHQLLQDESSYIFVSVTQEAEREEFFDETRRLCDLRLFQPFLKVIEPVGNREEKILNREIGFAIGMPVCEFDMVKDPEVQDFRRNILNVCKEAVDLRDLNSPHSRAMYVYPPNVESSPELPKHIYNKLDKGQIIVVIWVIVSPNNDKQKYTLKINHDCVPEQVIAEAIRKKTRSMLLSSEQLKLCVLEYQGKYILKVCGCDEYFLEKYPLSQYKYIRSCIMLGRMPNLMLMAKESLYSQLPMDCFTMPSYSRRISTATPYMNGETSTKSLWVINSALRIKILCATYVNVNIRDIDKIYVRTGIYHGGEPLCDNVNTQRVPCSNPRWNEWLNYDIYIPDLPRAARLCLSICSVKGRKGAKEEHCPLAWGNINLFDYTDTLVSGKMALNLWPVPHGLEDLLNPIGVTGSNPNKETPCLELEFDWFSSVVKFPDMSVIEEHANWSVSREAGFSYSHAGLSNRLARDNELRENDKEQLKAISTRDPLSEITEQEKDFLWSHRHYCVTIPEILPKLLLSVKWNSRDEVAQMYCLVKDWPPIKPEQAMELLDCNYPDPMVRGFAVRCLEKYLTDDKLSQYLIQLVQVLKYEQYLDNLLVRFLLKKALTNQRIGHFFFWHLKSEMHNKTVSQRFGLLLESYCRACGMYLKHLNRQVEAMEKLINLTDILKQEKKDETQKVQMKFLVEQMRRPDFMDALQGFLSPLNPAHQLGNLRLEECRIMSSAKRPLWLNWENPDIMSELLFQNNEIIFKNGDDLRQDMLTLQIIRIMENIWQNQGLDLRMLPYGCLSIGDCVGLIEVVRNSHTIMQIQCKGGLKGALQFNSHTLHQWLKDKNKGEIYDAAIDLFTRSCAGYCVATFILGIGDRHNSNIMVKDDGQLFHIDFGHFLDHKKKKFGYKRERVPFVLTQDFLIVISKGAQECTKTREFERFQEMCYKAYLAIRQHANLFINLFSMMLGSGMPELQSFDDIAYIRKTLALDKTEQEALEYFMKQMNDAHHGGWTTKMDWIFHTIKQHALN
Chain of PIK3CD (Human) (O00329 whole entry, looked up): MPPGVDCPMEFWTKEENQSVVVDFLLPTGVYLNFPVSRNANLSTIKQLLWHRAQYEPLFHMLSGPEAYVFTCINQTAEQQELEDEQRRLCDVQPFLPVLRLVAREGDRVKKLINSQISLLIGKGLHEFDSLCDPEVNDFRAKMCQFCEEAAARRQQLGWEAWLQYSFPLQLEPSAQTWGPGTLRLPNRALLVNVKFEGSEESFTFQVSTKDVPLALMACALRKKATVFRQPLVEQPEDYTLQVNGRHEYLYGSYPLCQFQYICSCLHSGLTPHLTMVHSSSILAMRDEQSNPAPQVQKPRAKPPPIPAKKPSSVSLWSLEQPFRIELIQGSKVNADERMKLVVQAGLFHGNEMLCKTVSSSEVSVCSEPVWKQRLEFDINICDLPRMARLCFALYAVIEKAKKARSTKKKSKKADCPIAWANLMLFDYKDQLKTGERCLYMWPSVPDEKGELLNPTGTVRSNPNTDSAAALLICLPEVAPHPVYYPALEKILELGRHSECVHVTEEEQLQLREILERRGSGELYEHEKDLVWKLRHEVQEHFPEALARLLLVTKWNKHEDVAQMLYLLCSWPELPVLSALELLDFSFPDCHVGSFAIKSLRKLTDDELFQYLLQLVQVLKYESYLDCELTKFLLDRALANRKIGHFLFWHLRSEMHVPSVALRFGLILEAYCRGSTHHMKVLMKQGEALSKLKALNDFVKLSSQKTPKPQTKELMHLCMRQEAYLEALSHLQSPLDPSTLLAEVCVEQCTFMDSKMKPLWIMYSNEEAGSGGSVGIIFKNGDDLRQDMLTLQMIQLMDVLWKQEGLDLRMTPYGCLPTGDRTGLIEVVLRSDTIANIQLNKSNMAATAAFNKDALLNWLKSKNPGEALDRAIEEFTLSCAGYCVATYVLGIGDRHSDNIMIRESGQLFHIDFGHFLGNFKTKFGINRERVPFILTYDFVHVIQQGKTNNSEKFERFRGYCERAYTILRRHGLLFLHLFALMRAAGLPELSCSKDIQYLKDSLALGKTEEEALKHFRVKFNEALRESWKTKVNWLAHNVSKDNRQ
Chain of PIK3CG (human) (P48736 whole entry, looked up): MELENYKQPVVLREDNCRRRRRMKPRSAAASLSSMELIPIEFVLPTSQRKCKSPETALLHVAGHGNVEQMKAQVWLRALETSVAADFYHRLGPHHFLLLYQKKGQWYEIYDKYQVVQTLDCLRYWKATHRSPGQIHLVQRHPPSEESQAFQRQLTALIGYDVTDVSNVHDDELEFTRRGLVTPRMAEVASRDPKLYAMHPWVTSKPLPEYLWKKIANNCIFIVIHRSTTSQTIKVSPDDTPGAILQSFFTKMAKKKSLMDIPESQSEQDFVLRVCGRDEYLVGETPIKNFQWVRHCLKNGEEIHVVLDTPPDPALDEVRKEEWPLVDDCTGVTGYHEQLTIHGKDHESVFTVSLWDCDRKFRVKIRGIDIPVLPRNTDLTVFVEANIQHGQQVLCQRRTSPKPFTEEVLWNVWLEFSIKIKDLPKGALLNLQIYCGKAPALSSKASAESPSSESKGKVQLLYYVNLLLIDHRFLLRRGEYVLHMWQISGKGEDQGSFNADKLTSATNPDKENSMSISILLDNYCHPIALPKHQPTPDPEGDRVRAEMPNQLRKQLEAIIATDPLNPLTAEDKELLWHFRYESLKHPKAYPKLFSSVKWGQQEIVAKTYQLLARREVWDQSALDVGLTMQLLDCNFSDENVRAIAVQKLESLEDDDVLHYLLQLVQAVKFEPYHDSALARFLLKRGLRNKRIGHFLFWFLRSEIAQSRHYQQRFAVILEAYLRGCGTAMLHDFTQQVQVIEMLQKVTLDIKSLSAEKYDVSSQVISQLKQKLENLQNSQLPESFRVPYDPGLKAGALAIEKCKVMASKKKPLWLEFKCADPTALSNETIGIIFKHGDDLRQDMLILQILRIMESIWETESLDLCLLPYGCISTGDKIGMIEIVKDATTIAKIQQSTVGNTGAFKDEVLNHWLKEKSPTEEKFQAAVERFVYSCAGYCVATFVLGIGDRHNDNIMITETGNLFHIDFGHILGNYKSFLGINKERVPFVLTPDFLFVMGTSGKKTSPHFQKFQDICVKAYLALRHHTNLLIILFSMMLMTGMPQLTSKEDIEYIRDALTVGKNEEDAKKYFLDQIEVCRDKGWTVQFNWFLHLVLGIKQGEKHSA

| Structure (SMILES) | IC50 (PIK3CA (human)) | IC50 (PIK3CG (human)) | IC50 (PIK3CD (Human)) | IC50 (PIK3CB (Human)) |
| --- | --- | --- | --- | --- |
| Cc1nc(N)nc2ccc(-c3cnc4[nH]ccc4c3)cc12 | 500 to 1000 nM | – | – | – |
| CNc1nc(C)c2cc(-c3ccc(O)c(Cl)c3)ccc2n1 | 500 to 1000 nM | – | – | – |
| CNc1nc(C)c2cc(-c3ccc(O)c(F)c3)ccc2n1 | 500 to 1000 nM | – | – | – |
| CNc1nc(C)c2cc(-c3cnc4[nH]ccc4c3)ccc2n1 | 500 to 1000 nM | 100 to 500 nM | – | – |
| CNc1nc(C)c2cc(-c3ccc(F)c(O)c3)ccc2n1 | 500 to 1000 nM | – | – | – |

More lines, now with the values ahead:

| IC50 (PIK3CA (human)) | IC50 (PIK3CG (human)) | IC50 (PIK3CD (Human)) | IC50 (PIK3CB (Human)) | Structure (SMILES) |
| --- | --- | --- | --- | --- |
| 100 to 500 nM | – | – | – | Nc1ncc2cc(-c3cccc(O)c3)ccc2n1 |
| ≤ 100 nM | ≤ 100 nM | ≤ 100 nM | – | Cc1nc(Nc2cccnc2)nc2ccc(-c3cc(O)cc(F)c3)cc12 |
| 100 to 500 nM | ≤ 100 nM | ≤ 100 nM | 500 to 1000 nM | CNc1nc(C)c2cc(-c3cc(O)cc(F)c3)ccc2n1 |
| 100 to 500 nM | ≤ 100 nM | 100 to 500 nM | – | CNc1nc(C)c2cc(-c3cccc(O)c3)ccc2n1 |
| 100 to 500 nM | ≤ 100 nM | ≤ 100 nM | 100 to 500 nM | Cc1nc(N)nc2ccc(-c3cccc(O)c3)cc12 |
| ≤ 100 nM | ≤ 100 nM | ≤ 100 nM | – | Cc1nc(Nc2cccnc2)nc2ccc(-c3cccc(O)c3)cc12 |
